Here are results for three compounds from patent US20250127790A1, “COMBINATION THERAPY USING VPS34 INHIBITORS” (Deciphera Pharmaceuticals, LLC, priority 2021, published 2025).

The subject of assay [1] is Renca renal cell carcinoma cells. Description: IncuCyte live-cell imaging, cell confluence, Renca cells. The class given is cell-based. The settings on record: 2 μM Compound 1, ADU-S100, up to 72 hours. The procedure:
Renca cells were treated with a combination of DMSO or 2 μM Compound 1 alone or in combination with STING agonist ADU-S100 for 24 hours. Treatment with 1 μM staurosporine was used as a positive control for apoptosis induction. To assess cell proliferation, 1000 cells/well were plated in 96-well plates. After 24 h, cells were treated with compounds in 100 μL complete medium. Phase-contrast images (10×) were acquired every 3 h for 24-72 h and cell confluence (%) was calculated using the IncuCyte S3 live-cell analysis system (Sartorius). For monitoring apoptosis, 5 μM of IncuCyte Caspase-3/7 Green Dye (#4440, Sartorius) was added to the medium at the time of treatment. Both phase-contrast and green fluorescent images were captured. Caspase 3/7 induction was calculated by counting green fluorescent objects per mm^2 and dividing it by the percentage of cell confluency.

Assay [2] concerns 786-O renal cell carcinoma cells. The experiment in a line: Western blot, STING pathway proteins with siRNA knockdown, 786-O cells. Format: cell-based. The conditions noted are these: 24 h; for CGAS level / STING level / p-IRF3 level / p-STAT1 level / p-TKB1 level / p-IRF3 and p-STAT1 levels with siRNA knockdown of CGAS / p-TKB1 level with siRNA knockdown of CGAS / p-IRF3 and p-STAT1 levels with siRNA knockdown of STING / p-TBK1 level with siRNA knockdown of STING: 2 μM; for CGAS level / STING level / p-IRF3 level / p-STAT1 level / p-TKB1 level: vs DMSO alone; for p-IRF3 and p-STAT1 levels with siRNA knockdown of CGAS / p-TKB1 level with siRNA knockdown of CGAS: siCGAS; for p-IRF3 and p-STAT1 levels with siRNA knockdown of CGAS / p-TKB1 level with siRNA knockdown of CGAS / p-IRF3 and p-STAT1 levels with siRNA knockdown of STING / p-TBK1 level with siRNA knockdown of STING: vs compound alone; for p-IRF3 and p-STAT1 levels with siRNA knockdown of STING / p-TBK1 level with siRNA knockdown of STING: siSTING; for STING level with siRNA knockdown of TBK1 / CGAS level with siRNA knockdown of TBK1: siTBK1, 2 μM; for CGAS level with siRNA knockdown of TBK1: vs DMSO. How it is done:
786-O cells were transfected with scrambled siRNA control (siSCR) or siRNA targeting TBK1 (siTBK1), STING (siSTING) or CGAS (siCGAS). After 48 h cells were treated with DMSO or 2 μM of VPS34 inhibitor (Compound 1 or Compound 2) for 24 h. 786-O cells were washed in PBS and lysed in RIPA buffer (50 mM Tris HCl pH=7.4, 150 mM NaCl, 1% Triton X-100, 0.5% Na-deoxycholate, 0.1% SDS) containing protease inhibitor cocktail (#11836170001, Roche), and phosphatase inhibitor (#11836170001, Roche) for 10 min at 4° C. After centrifugation at 15000 rpm for 10 min at 4° C., the supernatant was obtained, and protein concentration was quantified using BCA assay (#23225, Thermo Fisher). Equal amounts were mixed with 0.1 M DTT and LDS Sample Buffer (#84788, Thermo Fisher), heated for 5 min at 90° C. before loading onto 4-12% Bis-Tris gels. Proteins were transferred to nitrocellulose membranes. Membranes were blocked in 5% non-fat dry milk in TBS with 0.05% Tween (TBS-T) for 1 h at RT, washed in TBS-T, and probed with primary antibodies shaking overnight at 4° C. After washing in TBS-T, membranes were incubated with IRDye 800CW goat anti-rabbit or IRDye 680RD donkey anti-mouse IgG (H+L) (#926-32211 and #926-68072, respectively, LI-COR, 1:10,000 dilution) secondary antibody in Intercept blocking buffer (#927-60001, LI-COR) for 1 h at RT. After washing in TBS-T, membranes were imaged using the Odyssey CLx (LI-COR). Band intensities were quantified using Image Studio Lite software version 5.2.5 (LI-COR).
For orientation: Immunoblotting shows a protein as a band on a membrane.

In a further assay the test system is YUMM 1.7 melanoma cells. Description: qRT-PCR, combination with cGAMP, YUMM1.7 cells. Format: cell-based, Mouse. The settings on record: 24 hours, 5 μM Compound 1 or 10 μM Compound 2, 10 mg/ml cGAMP. How it is done: (§1) YUMM1.7 cells were treated for 24 hours with DMSO or VPS34 inhibitors (5 μM Compound 1 or 10 μM Compound 2) in combination with 10 mg/ml STING agonist cGAMP (green bars). Cells were washed with PBS and RNA was isolated using the PureLink RNA kit (#12183018A, Thermo Fisher Scientific) according to the manufacturer's protocol. Genomic DNA was removed using DNA-binding columns (RNeasy plus kit, #74134, Qiagen) and/or DNase treatment (#12185010, Thermo Fisher Scientific). RNA was quantified using NanoDrop (Thermo Fisher Scientific) and 50 ng/μL RNA was used for cDNA synthesis with SuperScript IV VILO Master Mix (#11756050, Thermo Fisher Scientific). Quantitative RT-PCR (qRT-PCR) was run with diluted cDNA (1:25 or 1:12.5), PowerUp SYBR Green Master Mix (#A25741, Thermo Fisher Scientific), and 200 nM primers (see below) on a CFX Connect RT-PCR system (BioRad). Data was analyzed using the ΔΔCT method. Results are mean±SEM of three independent experiments.
(Real-time PCR tracks product formation cycle by cycle.)

Assay [3] deals with 786-O renal cell carcinoma cells. The experiment in a line: qRT-PCR, Type 1 Interferon pathway gene expression in 786-O cells. Format: cell-based, Human. The settings on record: 2 μM, 24 hr. The procedure:
as §1, with “786-O” for “YUMM1.7”, “grown in RPMI-1640 medium containing 10% fetal bovine serum. Cells were then incubated for 2 days at 37 degrees Celsius, 5% CO2, and 95% humidity. 786-O cells were incubated with 2 μM of compound 1” for “treated”, “hr.” for “hours with DMSO or VPS34 inhibitors (5 μM Compound 1 or 10 μM Compound 2) in combination with 10 mg/ml STING agonist cGAMP (green bars).”

A further assay relates to 4T1 breast cancer cells. The experiment in a line: qRT-PCR, combination with cGAMP, 4T1 cells. The class given is cell-based, Mouse. The conditions noted are these: 24 hours, 5 μM Compound 1 or 10 μM Compound 2, 10 mg/ml cGAMP. How it is done:
as §1, with “4T1” for “YUMM1.7”

SMILES strings stand for the structures.

Take `Nc1ncnc2c1ncn2[C@@H]1O[C@@H]2COP(=O)([S-])O[C@@H]3[C@H](O)[C@@H](COP([O-])(=S)O[C@H]2[C@H]1O)O[C@H]3n1cnc2c(N)ncnc21.[Na+].[Na+]` (stereo partly shown) [ADU-S100, reference compound]: the cell confluence result in assay [1] is listed as “no effect”.
Take `C[C@@H]1COCCN1c1cc(=O)n2c(n1)N(Cc1cncc(Cl)c1)[C@H](C(F)(F)F)CC2` [Compound 2, (S)-9-((5-chloropyridin-3-yl)methyl)-2-((R)-3-methylmorpholino)-8-(trifluoromethyl)-6,7,8,9-tetrahydro-4H-pyrimido[1,2-a]pyrimidin-4-one]: in assay [2], the CGAS level result is recorded as “mild increase”, the STING level entry is listed as “increase”, the p-IRF3 level result is on record as “strong increases” and the p-STAT1 level result was “strong increases”. Also, in assay [2], the p-TKB1 level result is “increase”; the “p-IRF3 and p-STAT1 levels with siRNA knockdown of CGAS” value is “complete loss”; the “p-TKB1 level with siRNA knockdown of CGAS” value was “decrease”; the “p-IRF3 and p-STAT1 levels with siRNA knockdown of STING” value was “complete loss”. Moreover, in assay [2], the “p-TBK1 level with siRNA knockdown of STING” value is on record as “decrease”, the “STING level with siRNA knockdown of TBK1” value was “increase” and the “CGAS level with siRNA knockdown of TBK1” value is “increase”. Moreover, in the assay with YUMM 1.7 melanoma cells, the “CCL5 mRNA expression” value is “increased” and the “CXCL10 mRNA expression” value is on record as “did not increase”. In addition, the “increase in mRNA expression of IRF9” value in assay [3] was “approximately 2 fold”. Moreover, in the assay on 4T1 breast cancer cells, the “CCL5 mRNA expression” value was “increased” and the “CXCL10 mRNA expression” value is listed as “increased”.
For `C[C@@H]1COCCN1c1cc(N2CCCC[C@@H]2C(F)(F)F)[nH]c(=O)c1` [Compound 1, 4-((R)-3-methylmorpholino)-6-((R)-2-(trifluoromethyl)piperidin-1-yl)pyridin-2(1H)-one], in assay [2], the CGAS level entry is listed as “mild increase”, the STING level result is recorded as “increase”, the p-IRF3 level result is “strong increases” and the p-STAT1 level entry is reported as “strong increases”. In addition, in assay [2], the p-TKB1 level result is “increase”; the “p-IRF3 and p-STAT1 levels with siRNA knockdown of CGAS” value is listed as “complete loss”; the “p-TKB1 level with siRNA knockdown of CGAS” value is recorded as “decrease”; the “p-IRF3 and p-STAT1 levels with siRNA knockdown of STING” value was “complete loss”. Further, in assay [2], the “p-TBK1 level with siRNA knockdown of STING” value is given as “decrease”, the “STING level with siRNA knockdown of TBK1” value is reported as “increase” and the “CGAS level with siRNA knockdown of TBK1” value is “increase”. For the same compound, in the assay on YUMM 1.7 melanoma cells, the “CCL5 mRNA expression” value is recorded as “increased” and the “CXCL10 mRNA expression” value is on record as “did not increase”. In addition, the “increase in mRNA expression of IRF9” value in assay [3] is reported as “approximately 2 fold”. The cell confluence entry in assay [1] was “decreased”. Further, in the assay with 4T1 breast cancer cells, the “CCL5 mRNA expression” value is “increased” and the “CXCL10 mRNA expression” value is “increased”.
